Patent US9133207B2, “Tetrandrine derivatives with substituted 5-carbon, preparation method and use thereof” (Hangzhou Bensheng Pharmaceutical Co., Ltd., priority 2011, dated 2015)
Converted amounts (≈) assume the structure as drawn. Blank lines part the entries; values can stand above or below the compound they belong to.

Assays:
[1] = tested on: U87 MG (malignant glioma cell); experiment: Solid tumor cell growth inhibition, MTT, 72 h (Example 7); type: cell-based; conditions: Homo sapiens, U-87 MG
How it was run: (§1)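 MTT viability after 72 h compound exposure; 4000 cells/well seeded 24 h beforehand in DMEM high glucose, 10% FBS, 37 °C, 5% CO2. Untreated control taken as 100%.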

[2] = tested on: CNE (nasopharyngeal carcinoma cell); experiment: as above; type: cell-based; conditions: Homo sapiens
How it was run: as §1

[3] = tested on: SK-OV-3 (ovarian cancer cell); experiment: as above; type: cell-based; conditions: Homo sapiens
How it was run: as §1

[4] = tested on: MGC 803 (human gastric cancer cell); experiment: as above; type: cell-based; conditions: Homo sapiens
How it was run: as §1

[5] = tested on: Hela (human cervical cancer cell); experiment: as above; type: cell-based; conditions: Homo sapiens; 72 h, MTT, Hela
How it was run: as §1

[6] = tested on: Huh7 (human liver cancer cell); experiment: as above; type: cell-based; conditions: Homo sapiens; 72 h, MTT, Huh-7
How it was run: as §1

[7] = tested on: RKO (human colon adenocarcinoma cell); experiment: as above; type: cell-based; conditions: Homo sapiens; 72 h, MTT, RKO
How it was run: as §1

A549 (human lung cancer) = experiment: as above; type: cell-based; conditions: Homo sapiens; 72 h, MTT, A549
How it was run: as §1

[8] = tested on: Becap37 (human breast cancer cell); experiment: as above; type: cell-based; conditions: Homo sapiens; 72 h, MTT, Becap-37
How it was run: as §1

MG63 (osteosarcoma) = experiment: as above; type: cell-based, human; conditions: Homo sapiens; 72 h, MTT, MG-63
How it was run: as §1

PC-3 (prostate cancer) = experiment: as above; type: cell-based, human; conditions: Homo sapiens; 72 h, MTT, PC-3
How it was run: as §1

[9] = tested on: Hep-2 (laryngeal carcinoma); experiment: as above; type: cell-based, human; conditions: Homo sapiens; 72 h, MTT, Hep 2
How it was run: as §1

[10] = tested on: PANC-1 (pancreatic cancer); experiment: as above; type: cell-based, human; conditions: Homo sapiens; 72 h, MTT, PANC-1
How it was run: as §1

[11] = tested on: CaES-17 (esophageal cancer cell); experiment: as above; type: cell-based, human; conditions: Homo sapiens, CaEs17; 72 h, MTT, CAES-17
How it was run: as §1

[12] = tested on: Kasumi-1 (acute myeloid leukemia M2 type, AML-M2); experiment: Leukemia cell growth inhibition, MTT, 72 h (Example 5); type: cell-based, human; conditions: Homo sapiens, Kasumi 1
How it was run: (§2)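 6000 cells per well were seeded in RPMI 1640 with 10% FBS, exposed to graded concentrations of 5-substituted tetrandrine derivatives, and held 72 hours at 37° C, 5% CO2. Viable cell concentration was then measured by MTT.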

[13] = tested on: H9 (acute lymphoblastic leukemia, ALL); experiment: as above; type: cell-based, human; conditions: Homo sapiens; 72 h, MTT
How it was run: as §2

[14] = tested on: Jurkat (acute lymphoblastic leukemia, ALL); experiment: as above; type: cell-based, human; conditions: for IC50 / IC90: Homo sapiens, Jurkat, 72 h, MTT; for anti-Jurkat activity increase over tetrandrine: compared with tetrandrine
How it was run: as §2

[15] = tested on: K562/adr (drug-resistant, chronic myeloid leukemia, CML); experiment: as above; type: cell-based, human; conditions: Homo sapiens, K562/Adr; 72 h, MTT
How it was run: as §2

[16] = tested on: NB4 (acute promyelocytic leukemia, AML); experiment: as above; type: cell-based, human; conditions: Homo sapiens; 72 h, MTT
How it was run: as §2

[17] = tested on: RPMI8226 (multiple myeloma); experiment: Multiple myeloma cell growth inhibition, MTT, 72 h (Example 6); type: cell-based, human; conditions: Homo sapiens, RPMI-8226; 72 h, MTT, RPMI8226
How it was run: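 RPMI8226 cells (6000 per well) in RPMI 1640 with 10% FBS were exposed to a range of tetrandrine derivative concentrations for 72 h at 37 °C under 5% CO2. Viable cell concentration was then measured by MTT.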

- IC50 [1]: 0.69 µg/mL (≈ 0.997 µM)
- IC90 [1]: 3.05 µg/mL (≈ 4.41 µM)
- IC50 [2]: 3.7 µg/mL (≈ 5.35 µM)
- IC90 [2]: 6.2 µg/mL (≈ 8.96 µM)
- IC50 [3]: 3.77 µg/mL (≈ 5.45 µM)
- IC90 [3]: 24.3 µg/mL (≈ 35.1 µM)
- IC50 [4]: 1.74 µg/mL (≈ 2.51 µM)
- IC90 [4]: 7.1 µg/mL (≈ 10.3 µM)
- IC50 [5]: 1.97 µg/mL (≈ 2.85 µM)
- IC90 [5]: 3.83 µg/mL (≈ 5.54 µM)
- IC50 [6]: 1.27 µg/mL (≈ 1.84 µM)
- IC90 [6]: 2.4 µg/mL (≈ 3.47 µM)
- IC50 [7]: 1.22 µg/mL (≈ 1.76 µM)
- IC90 [7]: 2.94 µg/mL (≈ 4.25 µM)
- IC50 (A549 (human lung cancer)): 5.1 µg/mL (≈ 7.37 µM)
- IC90 (A549 (human lung cancer)): > 16 µg/mL
- IC50 [8]: 2.3 µg/mL (≈ 3.32 µM)
- IC90 [8]: 5.6 µg/mL (≈ 8.09 µM)
- IC50 (MG63 (osteosarcoma)): 2 µg/mL (≈ 2.89 µM)
- IC90 (MG63 (osteosarcoma)): 3.8 µg/mL (≈ 5.49 µM)
- IC50 (PC-3 (prostate cancer)): 3.02 µg/mL (≈ 4.36 µM)
- IC90 (PC-3 (prostate cancer)): 4.68 µg/mL (≈ 6.76 µM)
- IC50 [9]: 3.5 µg/mL (≈ 5.06 µM)
- IC90 [9]: 12.5 µg/mL (≈ 18 µM)
- IC50 [10]: 2.79 µg/mL (≈ 4.03 µM)
- IC90 [10]: 7.35 µg/mL (≈ 10.6 µM)
- IC50 [11]: 2.93 µg/mL (≈ 4.23 µM)
- IC90 [11]: 22.3 µg/mL (≈ 32.2 µM)
- IC50 [12]: 1.67 µg/mL (≈ 2.41 µM)
- IC90 [12]: 5.53 µg/mL (≈ 7.99 µM)
- IC50 [13]: 1.02 µg/mL (≈ 1.47 µM)
- IC90 [13]: 2.12 µg/mL (≈ 3.06 µM)
- IC50 [14]: 1.09 µg/mL (≈ 1.58 µM)
- IC90 [14]: 6.61 µg/mL (≈ 9.55 µM)
- IC50 [15]: 0.49 µg/mL (≈ 0.708 µM)
- IC90 [15]: 2.81 µg/mL (≈ 4.06 µM)
- IC50 [16]: 0.8 µg/mL (≈ 1.16 µM)
- IC90 [16]: 2 µg/mL (≈ 2.89 µM)
- IC50 [17]: 0.06 µg/mL (≈ 0.0867 µM)
- IC90 [17]: 2.95 µg/mL (≈ 4.26 µM)
SMILES: COc1ccc2cc1Oc1ccc(cc1)C[C@H]1c3cc(c(OC)cc3CCN1C)Oc1c(OC)c(OC)c(CNC3CC3)c3c1[C@H](C2)N(C)CC3 [BS-TE-301]

- IC50 [1]: 0.65 µg/mL (≈ 0.871 µM)
- IC90 [1]: 1.99 µg/mL (≈ 2.67 µM)
- IC50 [2]: 2.26 µg/mL (≈ 3.03 µM)
- IC90 [2]: 4.12 µg/mL (≈ 5.52 µM)
- IC50 [3]: 4 µg/mL (≈ 5.36 µM)
- IC90 [3]: > 16 µg/mL
- IC50 [4]: 1.39 µg/mL (≈ 1.86 µM)
- IC90 [4]: 7.08 µg/mL (≈ 9.49 µM)
- IC50 [5]: 2.12 µg/mL (≈ 2.84 µM)
- IC90 [5]: 3.97 µg/mL (≈ 5.32 µM)
- IC50 [6]: 1.35 µg/mL (≈ 1.81 µM)
- IC90 [6]: 1.92 µg/mL (≈ 2.57 µM)
- IC50 [7]: 0.6 µg/mL (≈ 0.804 µM)
- IC90 [7]: 1.67 µg/mL (≈ 2.24 µM)
- IC50 (A549 (human lung cancer)): 4 µg/mL (≈ 5.36 µM)
- IC90 (A549 (human lung cancer)): 16 µg/mL (≈ 21.5 µM)
- IC50 [8]: 1.96 µg/mL (≈ 2.63 µM)
- IC90 [8]: 4.5 µg/mL (≈ 6.03 µM)
- IC50 (MG63 (osteosarcoma)): 1.5 µg/mL (≈ 2.01 µM)
- IC90 (MG63 (osteosarcoma)): 2.8 µg/mL (≈ 3.75 µM)
- IC50 (PC-3 (prostate cancer)): 3.7 µg/mL (≈ 4.96 µM)
- IC90 (PC-3 (prostate cancer)): 5.9 µg/mL (≈ 7.91 µM)
- IC50 [9]: 3.37 µg/mL (≈ 4.52 µM)
- IC90 [9]: 7.54 µg/mL (≈ 10.1 µM)
- IC50 [10]: 2.66 µg/mL (≈ 3.57 µM)
- IC90 [10]: 9.71 µg/mL (≈ 13 µM)
- IC50 [11]: 2.69 µg/mL (≈ 3.61 µM)
- IC90 [11]: 10.1 µg/mL (≈ 13.5 µM)
- IC50 [12]: 1.1 µg/mL (≈ 1.47 µM)
- IC90 [12]: 3.71 µg/mL (≈ 4.97 µM)
- IC50 [13]: 1.45 µg/mL (≈ 1.94 µM)
- IC90 [13]: 2.4 µg/mL (≈ 3.22 µM)
- IC50 [14]: 0.55 µg/mL (≈ 0.737 µM)
- IC90 [14]: 4 µg/mL (≈ 5.36 µM)
- IC50 [15]: 0.63 µg/mL (≈ 0.845 µM)
- IC90 [15]: 3.15 µg/mL (≈ 4.22 µM)
- IC50 [16]: 0.8 µg/mL (≈ 1.07 µM)
- IC90 [16]: 2 µg/mL (≈ 2.68 µM)
- IC50 [17]: 0.08 µg/mL (≈ 0.107 µM)
- IC90 [17]: 3.69 µg/mL (≈ 4.95 µM)
SMILES: COc1ccc2cc1Oc1ccc(cc1)C[C@H]1c3cc(c(OC)cc3CCN1C)Oc1c(OC)c(OC)c(CNCc3ccc(C)o3)c3c1[C@H](C2)N(C)CC3 [BS-TE-358]
- anti-Jurkat activity increase over tetrandrine [14]: ~4 fold

- IC50 [1]: 0.19 µg/mL (≈ 0.259 µM)
- IC90 [1]: 0.57 µg/mL (≈ 0.777 µM)
- IC50 [2]: 2.5 µg/mL (≈ 3.41 µM)
- IC90 [2]: 5.4 µg/mL (≈ 7.36 µM)
- IC50 [3]: 3.9 µg/mL (≈ 5.31 µM)
- IC90 [3]: > 16 µg/mL
- IC50 [4]: 0.9 µg/mL (≈ 1.23 µM)
- IC90 [4]: 4.98 µg/mL (≈ 6.79 µM)
- IC50 [5]: 1.83 µg/mL (≈ 2.49 µM)
- IC90 [5]: 5 µg/mL (≈ 6.81 µM)
- IC50 [6]: 1.63 µg/mL (≈ 2.22 µM)
- IC90 [6]: 2.49 µg/mL (≈ 3.39 µM)
- IC50 [7]: 0.73 µg/mL (≈ 0.995 µM)
- IC90 [7]: 1.9 µg/mL (≈ 2.59 µM)
- IC50 (A549 (human lung cancer)): 2.5 µg/mL (≈ 3.41 µM)
- IC90 (A549 (human lung cancer)): 8 µg/mL (≈ 10.9 µM)
- IC50 [8]: 0.8 µg/mL (≈ 1.09 µM)
- IC90 [8]: 2.3 µg/mL (≈ 3.13 µM)
- IC50 (MG63 (osteosarcoma)): 0.8 µg/mL (≈ 1.09 µM)
- IC90 (MG63 (osteosarcoma)): 1.5 µg/mL (≈ 2.04 µM)
- IC50 (PC-3 (prostate cancer)): 2.92 µg/mL (≈ 3.98 µM)
- IC90 (PC-3 (prostate cancer)): 4.9 µg/mL (≈ 6.68 µM)
- IC50 [9]: 1.79 µg/mL (≈ 2.44 µM)
- IC90 [9]: 6.83 µg/mL (≈ 9.31 µM)
- IC50 [10]: 2.31 µg/mL (≈ 3.15 µM)
- IC90 [10]: 8.26 µg/mL (≈ 11.3 µM)
- IC50 [11]: 1.29 µg/mL (≈ 1.76 µM)
- IC90 [11]: 7.23 µg/mL (≈ 9.85 µM)
- IC50 [12]: 0.5 µg/mL (≈ 0.681 µM)
- IC90 [12]: 2.68 µg/mL (≈ 3.65 µM)
- IC50 [13]: 1.01 µg/mL (≈ 1.38 µM)
- IC90 [13]: 2.3 µg/mL (≈ 3.13 µM)
- IC50 [14]: 0.58 µg/mL (≈ 0.79 µM)
- IC90 [14]: 3.79 µg/mL (≈ 5.16 µM)
- IC50 [15]: 0.31 µg/mL (≈ 0.422 µM)
- IC90 [15]: 2.05 µg/mL (≈ 2.79 µM)
- IC50 [16]: 0.54 µg/mL (≈ 0.736 µM)
- IC90 [16]: 1.5 µg/mL (≈ 2.04 µM)
- IC50 [17]: 0.02 µg/mL (≈ 0.0272 µM)
- IC90 [17]: 0.06 µg/mL (≈ 0.0817 µM)
SMILES: COc1ccc2cc1Oc1ccc(cc1)C[C@H]1c3cc(c(OC)cc3CCN1C)Oc1c(OC)c(OC)c(CN3CCCC(C)C3)c3c1[C@H](C2)N(C)CC3 (some centres unmarked) [BS-TE-346]
- anti-Jurkat activity increase over tetrandrine [14]: ~4 fold
